In the supplement of paper PMC10307832:

How the values were obtained:
Assay in all cases: relative viability (nuclei count vs DMSO), 5 days (fraction); higher = more cells survive
GSK126 + Phenformin = compound: CC[C@H](C)N1C=C(C2=C(C=C(C=C21)C3=CN=C(C=C3)N4CCNCC4)C(=O)NCC5=C(C=C(NC5=O)C)C)C [GSK126] + N=C(N)NC(=N)NCCc1ccccc1 [Phenformin] (partner 250 µM)
Summary of the method: (§1)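 Cells from lung cancer lines were seeded into 1536-well plates and, one day later, dosed by pin tool. Treatments were either a single drug or a fixed dose of an anchor drug with five library-drug doses (not always all listed) in √10 steps. After 5 days, nuclei were stained in a one-step fixation (final 0.05% Triton X-100, 1% formaldehyde, 1 ug/ml Hoechst) and counted on 4× images, and relative viability is the treated-to-vehicle nuclei ratio, as the median of duplicate plates.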

GSK126 + Decitabine = compound: CC[C@H](C)N1C=C(C2=C(C=C(C=C21)C3=CN=C(C=C3)N4CCNCC4)C(=O)NCC5=C(C=C(NC5=O)C)C)C [GSK126] + Nc1ncn([C@H]2C[C@H](O)[C@@H](CO)O2)c(=O)n1 [Decitabine] (partner 2 µM)
Summary of the method: as §1

Carboplatin + Bortezomib = compound: C1CC(C1)(C(=O)O)C(=O)O.[NH2-].[NH2-].[Pt+2] [Carboplatin] + CC(C)C[C@H](NC(=O)[C@H](Cc1ccccc1)NC(=O)c1cnccn1)B(O)O [Bortezomib] (partner 0.002 µM)
Summary of the method: as §1

Carboplatin + Tozasertib = compound: C1CC(C1)(C(=O)O)C(=O)O.[NH2-].[NH2-].[Pt+2] [Carboplatin] + Cc1cc(Nc2cc(N3CCN(C)CC3)nc(Sc3ccc(NC(=O)C4CC4)cc3)n2)n[nH]1 [Tozasertib] (partner 0.1 µM)
Summary of the method: as §1

Cell Line | relative viability (GSK126 + Phenformin; first compound 0.08 µM) | relative viability (GSK126 + Phenformin; first compound 0.253 µM) | relative viability (GSK126 + Phenformin; first compound 0.8 µM) | relative viability (GSK126 + Phenformin; first compound 2.53 µM) | relative viability (GSK126 + Phenformin; first compound 8 µM) | relative viability (GSK126 + Decitabine; first compound 0.08 µM) | relative viability (GSK126 + Decitabine; first compound 0.253 µM) | relative viability (GSK126 + Decitabine; first compound 0.8 µM) | relative viability (GSK126 + Decitabine; first compound 2.53 µM) | relative viability (GSK126 + Decitabine; first compound 8 µM) | relative viability (Carboplatin + Bortezomib; first compound 0.08 µM) | relative viability (Carboplatin + Bortezomib; first compound 0.253 µM) | relative viability (Carboplatin + Bortezomib; first compound 0.8 µM) | relative viability (Carboplatin + Bortezomib; first compound 2.53 µM) | relative viability (Carboplatin + Bortezomib; first compound 8 µM) | relative viability (Carboplatin + Tozasertib; first compound 0.08 µM) | relative viability (Carboplatin + Tozasertib; first compound 0.253 µM) | relative viability (Carboplatin + Tozasertib; first compound 0.8 µM) | relative viability (Carboplatin + Tozasertib; first compound 2.53 µM) | relative viability (Carboplatin + Tozasertib; first compound 8 µM)
NCI-H2405 | 0.394 | 0.384 | 0.365 | 0.328 | 0.304 | 0.757 | 0.66 | 0.71 | 0.747 | 0.729 | 1.03 | 1 | 0.994 | 0.912 | 0.89 | 0.786 | 0.779 | 0.688 | 0.682 | 0.768
NCI-H3122 | 0.405 | 0.367 | 0.364 | 0.351 | 0.319 | 0.417 | 0.373 | 0.386 | 0.466 | 0.543 | 1.07 | 1.02 | 1.01 | 0.944 | 0.96 | 0.371 | 0.336 | 0.381 | 0.329 | 0.411
PC-3 [JPC-3] | 0.478 | 0.489 | 0.48 | 0.456 | 0.489 | 0.831 | 0.74 | 0.826 | 0.86 | 0.881 | 0.928 | 0.81 | 0.748 | 0.798 | 0.742 | 0.863 | 0.877 | 0.863 | 0.853 | 0.765
PC-14 | 0.554 | 0.611 | 0.667 | 0.651 | 0.565 | 0.215 | 0.2 | 0.166 | 0.255 | 0.213 | 0.846 | 0.845 | 0.757 | 0.868 | 0.437 | 0.553 | 0.582 | 0.443 | 0.314 | 0.202
RERF-LC-KJ | 0.484 | 0.417 | 0.396 | 0.4 | 0.396 | 0.717 | 0.731 | 0.715 | 0.735 | 0.779 | 1.22 | 1.2 | 1.19 | 1.18 | 0.937 | 0.553 | 0.471 | 0.483 | 0.406 | 0.386
SK-LU-1 | 0.674 | 0.521 | 0.553 | 0.582 | 0.603 | 0.711 | 0.535 | 0.6 | 0.928 | 0.708 | 1.79 | 1.26 | 1.44 | 1.21 | 0.582 | 0.366 | 0.293 | 0.341 | 0.346 | 0.275
SW 1573 | 0.41 | 0.4 | 0.376 | 0.439 | 0.423 | 0.648 | 0.463 | 0.431 | 0.573 | 0.517 | 1.09 | 1 | 1.12 | 1.05 | 0.808 | 0.2 | 0.191 | 0.19 | 0.173 | 0.207
